Assays:
[1] = Blood pressure in hypertensive, hypercholesterolemic patients (3x3 cross-over trial); assay type: in vivo, human; settings: manidipine 20 mg, simvastatin 40 mg or fixed combination, end of 12 week treatment
Description: (§1) The aim of this study was to evaluate the effect of the manidipine-simvastatin combination on plasma tissue plasminogen activator (t-PA) and inhibitor (PAI-1) activity, on plasma intercellular adhesion molecule type-1 (ICAM-1) and on serum C-reactive protein (CRP) in hypertensive, hypercholesterolemic patients.
(§2) After 4 week placebo run-in period, 30 hypertensive hypercholesterolemic patients were randomized to a manidipine 20 mg or simvastatin 40 mg or a manidipine-simvastatin fixed combination treatment, according to 3×3 cross-over design; each treatment had 12 week duration.
(§3) The last day of the placebo run-in period and of each treatment period blood pressure was measured and a venous blood sample was taken (at the same hour in the morning) to evaluate plasma t-PA and PAI-1 activity, TC plasma, ICAM-1 and CRP.

[2] = tested on: plasma tissue plasminogen activator (t-PA); experiment: Plasma t-PA activity in hypertensive, hypercholesterolemic patients; assay type: in vivo, human; settings: for t-PA: plasma activity, patients, end of 12 week treatment
Description: as §1, §2, §3

[3] = tested on: inhibitor (PAI-1); experiment: Plasma PAI-1 activity in hypertensive, hypercholesterolemic patients; assay type: in vivo, human; settings: for change in PAI-1 activity vs placebo: 12 week treatment; for PAI-1: plasma activity, patients, end of 12 week treatment
Description: as §1, §2, §3

[4] = tested on: total cholesterol; experiment: Total cholesterol (TC) in hypertensive, hypercholesterolemic patients; assay type: in vivo, human; settings: for TC: patients, end of 12 week treatment
Description: as §3

[5] = tested on: plasma intercellular adhesion molecule type-1 (ICAM-1); experiment: Plasma ICAM-1 in hypertensive, hypercholesterolemic patients; assay type: in vivo, human; settings: for change in ICAM-1 mean value vs placebo: 12 week treatment; for ICAM-1: plasma, patients, end of 12 week treatment
Description: as §1, §2, §3

[6] = tested on: serum C-reactive protein (CRP); experiment: Serum CRP in hypertensive, hypercholesterolemic patients; assay type: in vivo, human; settings: end of 12 week treatment
Description: as §1, §2, §3

[7] = tested on: perfused rat heart preparations submitted to ischemia-reperfusion; experiment: Myocardial ischemia-reperfusion damage, perfused hearts from orally treated rats; assay type: in vivo, Male Wistar rats; settings: oral gavage once a day for 5 days; manidipine 1 and 3 mg/kg, simvastatin 1 mg/kg, alone or combined
Description: The hearts were excised from rats orally treated for 5 consecutive days with manidipine and simvastatin alone or in combination. […] Data are means±SEM of 8 hearts per group. *P<0.05, **P<0.01, ***P<0.001 vs control; #P<0.01 vs simvastatin alone.
The aim of this study was to evaluate the protective effects of the manidipine-simvastatin combination against myocardial ischemia-reperfusion damage in the rat.
The study was performed according to a method described previously (Rossoni G et al Pharmacol Exp Ther. 2003 307(2), 633-9).
Male Wistar rats were randomly divided into six groups (n=6-8 rats per group). Manidipine (1 mg/kg and 3 mg/kg) simvastatin (1 mg/kg) were administered alone or in combination by oral gavage once a day for five consecutive days.
The following parameters were determined:
i) the left ventricular end-diastolic pressure (LVEDP) and the left ventricular developed pressure (LVDevP; peak left ventricular systolic pressure minus LVEDP);
ii) the activities of creatine kinase (CK) and lactate dehydrogenase (LDH) in the heart perfusate.
The data were expressed as mean±S.E.M (standard error of the mean).

[8] = tested on: ischemic-reperfused myocardium; settings: isolated rat hearts; simvastatin: normocholesterolemic rat hearts; cited from earlier work
[9] = change vs placebo, 12 week treatment

In the case of COC(=O)C1=C(C)NC(C)=C(C(=O)OCCN2CCN(C(c3ccccc3)c3ccccc3)CC2)C1c1cccc([N+](=O)[O-])c1 (racemic) [Manidipine, (±)-1,4-dihydro-2,6-dimethyl-4-(3-nitrophenyl)-3,5-pyridinedicarboxylic acid 2-[4-(diphenylmethyl)-1-piperazinyl]ethyl methyl ester], the DBP [1] is reported as 84.1 ± 4.8 mmHg, the SBP [1] is reported as 140.5 ± 10.7 mmHg and the “change in t-PA activity vs placebo” value [2, 9] is reported as “+0.22 U/ml”. The t-PA [2] was 0.71 ± 0.19 U/ml, the “change in PAI-1 activity vs placebo” value [3] was “did not affect” and the PAI-1 [3] was 24.9 ± 12.6 U/ml. The TC [4] was 253.8 ± 29.6 mg/dL, the “change in ICAM-1 mean value vs placebo” value [5] was -17.6 ng/mL and the ICAM-1 [5] was 220.2 ± 29.8 ng/mL. The CRP [6] was 0.34 ± 0.20 mg/dL, the “rise in LVEDP during ischemia and reperfusion” value [7] was “significantly reduced according to the dose used” and the “protection of ischemic-reperfused myocardium” value [8] was “relevant cardioprotection”.

Work on CCC(C)(C)C(=O)O[C@H]1C[C@@H](C)C=C2C=C[C@H](C)[C@H](CC[C@@H]3C[C@@H](O)CC(=O)O3)[C@H]21 [Simvastatin, simvastatin] yielded a DBP [1] of 98.2 ± 6.2 mmHg, an SBP [1] of 155.4 ± 11.9 mmHg and a t-PA [2] of 0.51 ± 0.14 U/ml. The “change in PAI-1 activity vs placebo” value [3] was −8.5 U/ml, the PAI-1 [3] was 16.1 ± 7.3 U/ml and the “change in total cholesterol mean value vs placebo” value [4, 9] was -52.7 mg/dL. The TC [4] was 202.2 ± 26.4 mg/dL, the “change in ICAM-1 mean value vs placebo” value [5] was -30.4 ng/mL and the ICAM-1 [5] was 207.4 ± 26 ng/mL. The CRP [6] was 0.16 ± 0.12 mg/dL.

In the case of COC(=O)C1=C(C)NC(C)=C(C(=O)OC2CCCN(Cc3ccccc3)C2)C1c1cccc([N+](=O)[O-])c1 (centres unmarked) [benidipine], the “protection of ischemic-reperfused myocardium” value [8] is listed as “relevant cardioprotection”.

— patent US20100022556A1, “Therapeutic combinations comprising a long acting dihydropyridine calcium-channel blocker and a statin” (CHIESI FARMACEUTICI S.P.A., priority 2005, published 2010)
